{"source": "patent US20240315990A1", "about": "“Adelmidrol For Use In Diseases Characterized By Insufficient Agonism Of PPAR-GAMMA Receptor” (Epitech Group S.P.A., priority 2016, published 2024)", "key": {"[1]": {"test_system": "carrageenan-induced rat paw edema", "assay": "carrageenan-induced rat paw edema, foot volume by plethysmometer", "format": "in vivo", "description": "The experimental model of carrageenan-induced rat paw edema was used.\nThe experimental model of carrageenan-induced paw edema was induced by sub-plantarily injecting a solution of carrageenan (containing 50 μl of sterile saline containing 1% carrageenan) in the animal's right paw (rat).\nThe foot volume was measured at specific time intervals by means of a plethysmometer (Ugo Basile, Milan, Italy). The increase in plantar volume was assessed as the difference between the value obtained at the specific time intervals and the volume at baseline (time 0) measured immediately before the administration of carrageenan.\nThe rats (10 animals per group) were divided into the following experimental groups: • CAR+physiological solution; • CAR+Adelmidrol (3 mg/kg); Adelmidrol was administered i.p. when injecting CAR; • CAR+Adelmidrol (10 mg/kg); Adelmidrol was administered i.p. when injecting CAR."}, "[2]": {"test_system": "carrageenan-induced edema in PPAR-α-WT and KO mice", "assay": "carrageenan-induced edema in PPAR-alpha knock-out mice", "format": "in vivo", "settings": "Adelmidrol 10 mg/kg i.p.; for edema as a percentage with respect to the edema produced by carrageenan alone: PPAR-α-WT and KO mice", "description": "In order to verify a possible involvement of PPAR-alpha receptor, the edema induced by carrageenan in the manners described above was carried out on PPAR-alpha knock-out mice (PPAR-α-WT and KO).\nPPAR-α-WT and KO mice (10 animals per group) were divided into the following experimental groups: • CAR+physiological solution; • CAR+Adelmidrol (10 mg/kg); Adelmidrol was administered i.p. when injecting CAR."}, "[3]": {"test_system": "DNBS-induced bowel tissue lesion", "assay": "DNBS-induced bowel tissue lesion, microscope lesion score", "format": "in vivo", "settings": "rat, DNBS 15 mg intrarectal, Adelmidrol 10 mg/kg per os in 2% CMC", "description": "Rats were anesthetized with ethyl ether in order to ensure the animals' waking up after 4-5 minutes. 60 mg/mL DNBS was dissolved in 50% ethanol in water. An amount of 0.25 ml of alcoholic solution (containing 15 mg of DNBS) was instilled to each animal, using an 8 cm long intrarectal catheter made of silicone so as to reach […]. During the experiment, the possible ejection of the solution from the rectum when the animal awoke was carefully monitored, taking it into account in the final assessment. The assessment of the bowel lesion was performed by taking, upon sacrifice of the animal, the entire bowel which was adequately washed with physiological solution and immediately examined under a microscope. Adelmidrol was administered per os through a gastric cannula in an amount of 10 mg/kg dissolved in aqueous solution containing 2% CMC (carboxymethylcellulose). The bowel tissue lesion was quantized through microscope inspection by two different observers. […]"}, "[4]": {"test_system": "myeloperoxidase (MPO)", "assay": "myeloperoxidase (MPO) activity in the bowel of DNBS-treated animals", "format": "in vivo, rat", "settings": "Adelmidrol 10 mg/kg orally", "description": "The determination of the activity of the enzyme myeloperoxidase (MPO), which is considered an important marker of neutrophil activity in the bowel, fully confirms the effect of Adelmidrol on the colonic mucosa. The test was carried out by the method described in the literature (Morampudi V. et al. Journal of Visualized Experiments—February 2014; 84:1-8) on DBNS-treated animals, not treated animals, or animals orally treated with Adelmidrol (10 mg/kg).\nThe results are shown in the chart in FIG. 4."}, "[5]": {"test_system": "bleomycin-induced lung edema", "assay": "bleomycin-induced lung lesion, lung edema (wet vs dry lung weight)", "format": "in vivo, CD1 male mice", "description": "CD1 male mice ((CD1(ICR) mice (25-35 g; Harlan Nossan, Italy) were accommodated in a controlled environment and fed with standard food and water. Using a catheter (tracheotomy tube), the mice received a single intratracheal instillation of physiological solution (0.9%) or saline containing bleomycin sulfate (0.1 U/mouse) in a final volume of 100 μL, and the liquid was immediately followed by 300 μL of air in order to also ensure the distribution thereof in the distal airways. The weight of the wet lungs was calculated after 28 days upon injecting bleomycin by means of careful excision of the lung from the adjacent tissues. The lungs were exposed for 48 hours at 180° C. and the dry weight was then assessed. The lung water content was calculated as wet weight-to-dry weight ratio. In order to assess the degree of the existing lung edema, at the end of the experiment, even in untreated animals, the comparison of the wet lung weight to the lung weight after water removal was carried out. The results are shown in the chart in FIG. 6."}, "[6]": {"test_system": "TNF-α and IL1β", "assay": "bleomycin-induced lung lesion, dosage of inflammatory cytokines TNF-α and IL1β", "format": "in vivo, CD1 male mice", "settings": "BLM-treated mice", "description": "CD1 male mice ((CD1(ICR) mice (25-35 g; Harlan Nossan, Italy) were accommodated in a controlled environment and fed with standard food and water.\nUsing a catheter (tracheotomy tube), the mice received a single intratracheal instillation of physiological solution (0.9%) or saline containing bleomycin sulfate (0.1 U/mouse) in a final volume of 100 μL, and the liquid was immediately followed by 300 μL of air in order to also ensure the distribution thereof in the distal airways.\nTNF-α and IL1β are also regarded as the biochemical markers of inflammation and fibrosis of the lung. The results obtained are shown in the chart in FIG. 9."}}, "note": "Entries after “also recorded” stand apart in the source; their conditions may differ."}
{"smiles": "O=C(CCCCCCCC(=O)NCCO)NCCO", "note": "[Adelmidrol, azelaic acid diethanolamide]", "values": [{"measurement": "effect on carrageenan-induced edema (in words)", "setting": "[1]; 3 and 10 mg/kg i.p.", "value": "reduction of the carrageenan-induced edema with a dose-dependent action"}, {"measurement": "paw edema as a percentage with respect to the edema produced by carrageenan alone", "setting": "[1]; Adelmidrol 3 mg/kg i.p. when injecting CAR, 0 min.", "value": 101.2, "unit": "percentage"}, {"measurement": "paw edema as a percentage with respect to the edema produced by carrageenan alone", "setting": "[1]; Adelmidrol 3 mg/kg i.p. when injecting CAR, 30 min", "value": 86.7, "unit": "percentage"}, {"measurement": "paw edema as a percentage with respect to the edema produced by carrageenan alone", "setting": "[1]; Adelmidrol 3 mg/kg i.p. when injecting CAR, 1 hr", "value": 71.9, "unit": "percentage"}, {"measurement": "paw edema as a percentage with respect to the edema produced by carrageenan alone", "setting": "[1]; Adelmidrol 3 mg/kg i.p. when injecting CAR, 2 hr", "value": 72.3, "unit": "percentage"}, {"measurement": "paw edema as a percentage with respect to the edema produced by carrageenan alone", "setting": "[1]; Adelmidrol 3 mg/kg i.p. when injecting CAR, 3 hr", "value": 69.8, "unit": "percentage"}, {"measurement": "paw edema as a percentage with respect to the edema produced by carrageenan alone", "setting": "[1]; Adelmidrol 3 mg/kg i.p. when injecting CAR, 4 hr", "value": 67.2, "unit": "percentage"}, {"measurement": "paw edema as a percentage with respect to the edema produced by carrageenan alone", "setting": "[1]; Adelmidrol 3 mg/kg i.p. when injecting CAR, 5 hr", "value": 67.4, "unit": "percentage"}, {"measurement": "paw edema as a percentage with respect to the edema produced by carrageenan alone", "setting": "[1]; Adelmidrol 10 mg/kg i.p. when injecting CAR, 0 min.", "value": 102.6, "unit": "percentage"}, {"measurement": "paw edema as a percentage with respect to the edema produced by carrageenan alone", "setting": "[1]; Adelmidrol 10 mg/kg i.p. when injecting CAR, 30 min", "value": 81.6, "unit": "percentage"}, {"measurement": "paw edema as a percentage with respect to the edema produced by carrageenan alone", "setting": "[1]; Adelmidrol 10 mg/kg i.p. when injecting CAR, 1 hr", "value": 68.7, "unit": "percentage"}, {"measurement": "paw edema as a percentage with respect to the edema produced by carrageenan alone", "setting": "[1]; Adelmidrol 10 mg/kg i.p. when injecting CAR, 2 hr", "value": 63.8, "unit": "percentage"}, {"measurement": "paw edema as a percentage with respect to the edema produced by carrageenan alone", "setting": "[1]; Adelmidrol 10 mg/kg i.p. when injecting CAR, 3 hr", "value": 53.6, "unit": "percentage"}, {"measurement": "paw edema as a percentage with respect to the edema produced by carrageenan alone", "setting": "[1]; Adelmidrol 10 mg/kg i.p. when injecting CAR, 4 hr", "value": 49.5, "unit": "percentage"}, {"measurement": "paw edema as a percentage with respect to the edema produced by carrageenan alone", "setting": "[1]; Adelmidrol 10 mg/kg i.p. when injecting CAR, 5 hr", "value": 49.5, "unit": "percentage"}, {"measurement": "protective action on carrageenan-induced edema in the absence of the PPAR-alpha receptor", "setting": "[2]; PPAR-alpha knock-out mice", "value": "did not alter the protective action of Adelmidrol; also recorded: shows activity on the carrageenan-induced edema in mice genetically lacking the PPAR-alpha receptor"}, {"measurement": "edema as a percentage with respect to the edema produced by carrageenan alone", "setting": "[2]; 0 min.", "value": 102.4, "unit": "percentage"}, {"measurement": "edema as a percentage with respect to the edema produced by carrageenan alone", "setting": "[2]; 30 min", "value": 81.9, "unit": "percentage"}, {"measurement": "edema as a percentage with respect to the edema produced by carrageenan alone", "setting": "[2]; 1 hr", "value": 69.2, "unit": "percentage"}, {"measurement": "edema as a percentage with respect to the edema produced by carrageenan alone", "setting": "[2]; 2 hr", "value": 63.9, "unit": "percentage"}, {"measurement": "edema as a percentage with respect to the edema produced by carrageenan alone", "setting": "[2]; 3 hr", "value": 55.6, "unit": "percentage"}, {"measurement": "edema as a percentage with respect to the edema produced by carrageenan alone", "setting": "[2]; 4 hr", "value": 51.4, "unit": "percentage"}, {"measurement": "edema as a percentage with respect to the edema produced by carrageenan alone", "setting": "[2]; 5 hr", "value": 50.3, "unit": "percentage"}, {"measurement": "bowel tissue lesion, score 0 to 8 by microscope inspection (FIG. 2, FIG. 3)", "setting": "[3]", "value": "important, significant protection of the colonic mucosa"}, {"measurement": "MPO activity in the bowel, marker of neutrophil activity (FIG. 4)", "setting": "[4]", "value": "anti-inflammatory effect on the bowel tissue"}, {"measurement": "difference in lung weight between fresh organ and dried organ (FIG. 6)", "setting": "[5]; mice not treated with BLM", "value": "does not change the difference in lung weight between fresh organ and dried organ"}, {"measurement": "difference in lung weight between fresh organ and dried organ (FIG. 6)", "setting": "[5]; mice treated with BLM and Adelmidrol vs BLM and inert vehicle", "value": "considerably lower"}, {"measurement": "IL1β level in the lung (FIG. 9)", "setting": "[6]", "value": "considerably reduces the levels of both inflammatory cytokines"}, {"measurement": "TNF-α level in the lung (FIG. 9)", "setting": "[6]", "value": "considerably reduces the levels of both inflammatory cytokines"}]}
